According to patent publication US20250002548A1, “Wild Boar Cathelicidin Peptide Variants and Vectors Encoding the Same for Uses in Managing Coronavirus Infections” (Emory University, priority 2021, published 2025):
Square brackets hold non-standard residues; d marks the D form. Peptide text beside a SMILES is read from it.

Experiments:
SARS-CoV-2 [1] = conditions: ratio of IC50 and TD50; SARS-CoV-2 vs Vero E6 cells
[2] = test system: Vero E6 and HEK293T cells; conditions: administered over 48 hours
[3] = test system: human red blood cells (RBCs)
SARS-CoV-2 [4] = test system: SARS-CoV-2

SMILES | therapeutic index (TI) (SARS-CoV-2 [1]) | cytotoxicity [2] | hemolytic activity [3] | IC50 (SARS-CoV-2 [4])
CC[C@@H](C)[C@@H](NC(=O)[C@H]1CCCN1C(=O)[C@H]1CCCN1C(=O)[C@H](NC(=O)[C@@H](Cc1c[nH]c2ccccc12)NC(=O)[C@@H](CCCCN)NC(=O)[C@@H](CC(C)C)NC(=O)[C@H](NC(=O)[C@@H](CCCCN)NC(=O)CNC(=O)[C@H](NC(=O)[C@@H](CCCCN)NC(=O)[C@@H](CCCCN)NC(=O)[C@@H](CC(C)C)NC(=O)[C@@H](CCCNC(=N)N)NC(=O)[C@@H](CCCCN)NC(=O)[C@@H](CCCNC(=N)N)NC(=O)[C@H](NC(=O)[C@@H](CCCCN)NC(=O)[C@@H](CCCCN)NC(=O)[C@@H](CCCNC(=N)N)NC(=O)[C@@H](CC(C)C)NC(=O)[C@@H](CCCNC(=N)N)NC(=O)[C@@H](CCCNC(=N)N)NC(=O)[C@@H](Cc1ccccc1)NC(=O)[C@@H](CCCNC(=N)N)NC(=O)CNC(=O)[C@H](N)C(C)C)[C@H](C)O)[C@H](C)CC)C(C)C)[C@H](C)CC)C(=O)N[C@@H](C(=O)NCC(=O)N[C@H](CO)C(=O)N[C@@H](C(=O)N1CCC[C@@H]1C(=O)N[C@H](CC(C)C)C(=O)NCC(=O)N[C@H](CO)C(=O)NCC(=O)O)[C@H](C)CC)C(C)C [D-Yongshi] (H-[dV]G[dR][dF][dR][dR][dL][dR][dK][dK][dT][dR][dK][dR][dL][dK][dK][dI]G[dK][dV][dL][dK][dW][dI][dP][dP][dI][dV]G[dS][dI][dP][dL]G[dS]G-OH) | 1.64 | significantly increased cytotoxicity |  | 
CC[C@H](C)[C@H](NC(=O)[C@H](CCCCN)NC(=O)[C@H](CCC(=O)O)NC(=O)[C@H](CCCCN)NC(=O)[C@H](CO)NC(=O)[C@H](CCCCN)NC(=O)[C@H](CCCNC(=N)N)NC(=O)[C@H](Cc1ccccc1)NC(=O)[C@H](Cc1ccccc1)NC(=O)[C@H](CC(=O)O)NC(=O)CNC(=O)[C@H](CC(C)C)NC(=O)[C@@H](N)CC(C)C)C(=O)NCC(=O)N[C@@H](CCCCN)C(=O)N[C@@H](CCC(=O)O)C(=O)N[C@@H](Cc1ccccc1)C(=O)N[C@@H](CCCCN)C(=O)N[C@@H](CCCNC(=N)N)C(=O)N[C@H](C(=O)N[C@H](C(=O)N[C@@H](CCC(N)=O)C(=O)N[C@@H](CCCNC(=N)N)C(=O)N[C@H](C(=O)N[C@@H](CCCCN)C(=O)N[C@@H](CC(=O)O)C(=O)N[C@@H](Cc1ccccc1)C(=O)N[C@@H](CC(C)C)C(=O)N[C@@H](CCCNC(=N)N)C(=O)N[C@@H](CC(N)=O)C(=O)N[C@@H](CC(C)C)C(=O)N[C@H](C(=O)N1CCC[C@H]1C(=O)N[C@@H](CCCNC(=N)N)C(=O)N[C@H](C(=O)N[C@@H](CCC(=O)O)C(=O)N[C@@H](CO)C(=O)O)[C@@H](C)O)C(C)C)[C@@H](C)CC)C(C)C)[C@@H](C)CC [LL-37, reference compound] |  |  | significant hemolytic activity | 
CC[C@H](C)[C@H](NC(=O)[C@H](CCCCN)NC(=O)[C@H](CCCCN)NC(=O)[C@H](CC(C)C)NC(=O)[C@H](CCCNC(=N)N)NC(=O)[C@H](CCCCN)NC(=O)[C@H](CCCNC(=N)N)NC(=O)[C@@H](NC(=O)[C@H](CCCCN)NC(=O)[C@H](CCCCN)NC(=O)[C@H](CCCNC(=N)N)NC(=O)[C@H](CC(C)C)NC(=O)[C@H](CCCNC(=N)N)NC(=O)[C@H](CCCNC(=N)N)NC(=O)[C@H](Cc1ccccc1)NC(=O)[C@H](CCCNC(=N)N)NC(=O)CNC(=O)[C@@H](N)C(C)C)[C@@H](C)O)C(=O)NCC(=O)N[C@@H](CCCCN)C(=O)N[C@H](C(=O)N[C@@H](CC(C)C)C(=O)N[C@@H](CCCCN)C(=O)N[C@@H](Cc1c[nH]c2ccccc12)C(=O)N[C@H](C(=O)N1CCC[C@H]1C(=O)N1CCC[C@H]1C(=O)N[C@H](C(=O)N[C@H](C(=O)NCC(=O)N[C@@H](CO)C(=O)N[C@H](C(=O)N1CCC[C@H]1C(=O)N[C@@H](CC(C)C)C(=O)NCC(=O)N[C@@H](CS)C(=O)NCC(=O)O)[C@@H](C)CC)C(C)C)[C@@H](C)CC)[C@@H](C)CC)C(C)C [PMAP-36R] (H-VGRFRRLRKKTRKRLKKIGKVLKWIPPIVGSIPLGCG-OH; N-terminus and C-terminus assumed) |  | greater toxicity than LL-37 | significant hemolytic activity | 12 µM
CC[C@H](C)[C@H](NC(=O)[C@H](CCCCN)NC(=O)[C@H](CCCCN)NC(=O)[C@H](CC(C)C)NC(=O)[C@H](CCCNC(=N)N)NC(=O)[C@H](CCCCN)NC(=O)[C@H](CCCNC(=N)N)NC(=O)[C@@H](NC(=O)[C@H](CCCCN)NC(=O)[C@H](CCCCN)NC(=O)[C@H](CCCNC(=N)N)NC(=O)[C@H](CC(C)C)NC(=O)[C@H](CCCNC(=N)N)NC(=O)[C@H](CCCNC(=N)N)NC(=O)[C@H](Cc1ccccc1)NC(=O)[C@H](CCCNC(=N)N)NC(=O)CNC(=O)[C@@H](N)C(C)C)[C@@H](C)O)C(=O)NCC(=O)N[C@@H](CCCCN)C(=O)N[C@H](C(=O)N[C@@H](CC(C)C)C(=O)N[C@@H](CCCCN)C(=O)N[C@@H](Cc1c[nH]c2ccccc12)C(=O)N[C@H](C(=O)N1CCC[C@H]1C(=O)N1CCC[C@H]1C(=O)N[C@H](C(=O)N[C@H](C(=O)NCC(=O)N[C@@H](CO)C(=O)N[C@H](C(=O)N1CCC[C@H]1C(=O)N[C@@H](CC(C)C)C(=O)NCC(=O)N[C@@H](CO)C(=O)NCC(=O)O)[C@@H](C)CC)C(C)C)[C@@H](C)CC)[C@@H](C)CC)C(C)C [Yongshi] (H-VGRFRRLRKKTRKRLKKIGKVLKWIPPIVGSIPLGSG-OH) | 3.50 | decreased cytotoxicity compared to the parent PMAP-36R and LL-37 | significantly reduced hemolytic activity | 
